From patent US20030224470A1, “Method of diagnosing statin myopathy” (priority 2002, published 2003)
One block for each molecule: values may come before it.

Tests used:
[1] = Muscular strength tests: hip abduction and flexion, Nicholas Manual Muscle Tester; assay type: in vivo, patients
Text: (§1) The association of increased levels of 3MGA with statin myopathy was discovered in a study of four patients identified among the first 20 patients randomly assigned in an ongoing, unfunded, doubleblinded, crossover clinical trial that had been approved by an investigational review board. Patients who had muscle symptoms during statin therapy that resolved when they were not receiving statins for 2 weeks were recruited from a clinical research group. Eligible patients had to have normal creatine kinase levels while they were experiencing symptoms. End points were 1) whether patients could accurately identify blinded statin therapy, 2) standard measures of functional capacity and muscle strength, 3) standard measures of biochemical properties of blood, urine and muscle specimens and 4) analysis of muscle biopsy for pathology. The muscular strength tests during both placebo use and statin therapy included hip abduction and flexion measured by Nicholas Manual Muscle Tester (Lafayette Instrument Co., Lafayette, Ind.) The standard measures for biochemical alterations included blood, urine and muscle biopsy analysis for levels of endogenous factors and drug. Analysis of muscle biopsy for pathology included general histology of the samples and detection of various markers involved in metabolism.

Statin level in patients = assay type: in vivo
Text: as §1
All four patients in the study had normal statin levels (TABLE 1).

[2] = Serum creatine kinase level during statin therapy; assay type: in vivo, patients; settings: normal range 0-3.26 μkat/L
Text: as §1
The creatine kinase level remained normal in these patients every time they became myopathic both before and during the trial. The presence of a normal creatine kinase level has previously been used to argue against myopathy in patients with muscle symptoms during statin therapy.

[3] = Muscle biopsy pathology (histology, metabolic markers); assay type: in vivo, patients; settings: Patient 3; during atorvastatin therapy
Text: as §1, with “metabolism. […]” for “metabolism.”

[4] = Clinical muscle symptoms during statin therapy; assay type: in vivo, patients
Text: as §1

[5] = Urine organic acid analysis for 3-methylglutaconic acid (3MGA); assay type: in vivo, patients
[6] = Patient 3, Atorvastatin 20 mg/d
[7] = Patient 4, atorvastatin 10 mg/d
[8] = Patient 1, 4 years of simvastatin therapy, brief trial of atorvastatin
[9] = Patient 2, lovastatin 40 mg/d, simvastatin added to niacin
[10] = Patient 1, Cerivistatin 0.4 mg/d listed first

Hip Abduction (Strength) On Statin [1, 6]: 6.3 kg
Hip Flexion (Strength) On Statin [1, 6]: 14.3 kg
Hip Abduction (Strength) On Statin [1, 7]: 12.9 kg
Hip Flexion (Strength) On Statin [1, 7]: 24.1 kg
Statin Level (Statin level in patients; [6]): 10.9 (Ator- ngEq/cm^3
Creatine Kinase Level during Statin Therapy [2, 6]: 2.30 μkat/L
Creatine Kinase Level during Statin Therapy ([2]; Patient 4, Atorvastatin 10 mg/d): 1.39 μkat/L
Muscle symptoms during therapy [4, 8]: Symptoms did not change
Muscle symptoms during therapy [4, 7]: leg aches when climbing stairs
Time to onset of leg aches [4, 7]: ≤ 2 weeks
SMILES: CC(C)c1c(C(=O)Nc2ccccc2)c(-c2ccccc2)c(-c2ccc(F)cc2)n1CC[C@@H](O)C[C@@H](O)CC(=O)O [Atorvastatin]
Muscle biopsy findings during therapy [3]: increased lipid droplets, ragged red fibers, and cytochrome oxidase—negative muscle fibers
Muscle symptoms during therapy ([4]; Patient 3, atorvastatin 20 mg/d for 2 years): aching and weakness of the shoulder, hip, and thigh

Muscle symptoms during therapy [4, 9]: muscle pains and weakness
SMILES: CC[C@H](C)C(=O)O[C@H]1C[C@@H](C)C=C2C=C[C@H](C)[C@H](CC[C@@H]3C[C@@H](O)CC(=O)O3)[C@H]21 [lovastatin]

Hip Abduction (Strength) On Statin ([1]; Patient 2, Simvastatin 40 mg/d): 11.6 kg
Hip Flexion (Strength) On Statin ([1]; Patient 2, Simvastatin 40 mg/d): 9.6 kg
Statin Level (Statin level in patients; Patient 1): 1.4 (Sim- ngEq/cm^3
Statin Level (Statin level in patients; Patient 2, Simvastatin 40 mg/d): 16.3 (Sim- ngEq/cm^3
Creatine Kinase Level during Statin Therapy ([2]; Patient 2, Simvastatin 40 mg/d): 0.73 μkat/L
3-Methylglutaconic acid levels On Statin ([5]; Patient 2, Simvastatin 40 mg/d, normal range 0-9 mmol/mol creatinine): 11 mmol/mol
SMILES: CCC(C)(C)C(=O)O[C@H]1C[C@@H](C)C=C2C=C[C@H](C)[C@H](CC[C@@H]3C[C@@H](O)CC(=O)O3)[C@H]21 [Simvastatin]
Muscle symptoms during therapy [4, 8]: muscle aches and decreased exercise tolerance
Muscle symptoms during therapy [4, 9]: muscle aches, weakness, and shortness of breath with exertion

Hip Abduction (Strength) On Statin [1, 10]: 4.1 kg
Hip Flexion (Strength) On Statin [1, 10]: 8.0 kg
Creatine Kinase Level during Statin Therapy ([2]; Patient 1): 0.63 μkat/L
3-Methylglutaconic acid levels On Statin ([5]; Patient 1, normal range 0-9 mmol/mol creatinine): 21 mmol/mol
SMILES: COCc1c(C(C)C)nc(C(C)C)c(/C=C/[C@@H](O)C[C@@H](O)CC(=O)O)c1-c1ccc(F)cc1 [Cerivistatin]
